Results taken from ChEMBL document CHEMBL1201862, “PubChem BioAssay data set” (2004).
Active and inactive are the calls of the source.

What was measured:
[1] = biological target: T1, Short transient receptor potential channel 4 (Mus musculus, UniProt Q9QUQ5); experiment: mouse TRPC4 channel activators, dose response, cell-based, HEK293 TRPC4/mu-opioid, Fluo-4 calcium (AID 434937); assay type: functional
T1 sequence (Q9QUQ5 whole entry): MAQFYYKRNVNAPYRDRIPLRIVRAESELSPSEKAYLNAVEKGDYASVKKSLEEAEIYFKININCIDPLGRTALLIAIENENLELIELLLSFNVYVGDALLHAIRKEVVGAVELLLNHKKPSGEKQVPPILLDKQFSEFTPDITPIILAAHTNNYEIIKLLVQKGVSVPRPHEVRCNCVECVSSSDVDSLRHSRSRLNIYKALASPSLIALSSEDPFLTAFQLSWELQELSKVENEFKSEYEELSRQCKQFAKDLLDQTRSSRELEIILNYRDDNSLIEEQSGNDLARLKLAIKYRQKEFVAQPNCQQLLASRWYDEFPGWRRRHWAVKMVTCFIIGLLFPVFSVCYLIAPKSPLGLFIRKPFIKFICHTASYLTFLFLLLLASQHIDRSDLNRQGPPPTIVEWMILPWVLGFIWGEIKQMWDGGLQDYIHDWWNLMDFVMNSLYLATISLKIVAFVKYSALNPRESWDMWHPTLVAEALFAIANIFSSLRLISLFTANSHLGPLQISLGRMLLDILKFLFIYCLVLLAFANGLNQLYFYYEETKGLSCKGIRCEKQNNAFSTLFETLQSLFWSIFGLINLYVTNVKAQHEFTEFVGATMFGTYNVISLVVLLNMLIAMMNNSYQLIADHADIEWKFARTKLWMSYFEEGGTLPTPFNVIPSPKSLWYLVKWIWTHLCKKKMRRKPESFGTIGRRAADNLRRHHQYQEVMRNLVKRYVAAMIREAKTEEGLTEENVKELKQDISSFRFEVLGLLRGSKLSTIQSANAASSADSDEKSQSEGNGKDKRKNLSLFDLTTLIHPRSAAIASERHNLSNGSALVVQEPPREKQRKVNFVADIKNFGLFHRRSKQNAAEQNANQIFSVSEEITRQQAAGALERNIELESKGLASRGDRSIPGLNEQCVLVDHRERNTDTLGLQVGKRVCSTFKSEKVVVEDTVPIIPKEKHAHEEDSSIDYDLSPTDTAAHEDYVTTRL

[2] = biological target: T2, High affinity choline transporter 1 (Homo sapiens, UniProt Q9GZV3); experiment: CHT inhibitors, dose response, cell-based, 5-point CRC, membrane potential dye (AID 504840); assay type: functional
T2 sequence (Q9GZV3 whole entry): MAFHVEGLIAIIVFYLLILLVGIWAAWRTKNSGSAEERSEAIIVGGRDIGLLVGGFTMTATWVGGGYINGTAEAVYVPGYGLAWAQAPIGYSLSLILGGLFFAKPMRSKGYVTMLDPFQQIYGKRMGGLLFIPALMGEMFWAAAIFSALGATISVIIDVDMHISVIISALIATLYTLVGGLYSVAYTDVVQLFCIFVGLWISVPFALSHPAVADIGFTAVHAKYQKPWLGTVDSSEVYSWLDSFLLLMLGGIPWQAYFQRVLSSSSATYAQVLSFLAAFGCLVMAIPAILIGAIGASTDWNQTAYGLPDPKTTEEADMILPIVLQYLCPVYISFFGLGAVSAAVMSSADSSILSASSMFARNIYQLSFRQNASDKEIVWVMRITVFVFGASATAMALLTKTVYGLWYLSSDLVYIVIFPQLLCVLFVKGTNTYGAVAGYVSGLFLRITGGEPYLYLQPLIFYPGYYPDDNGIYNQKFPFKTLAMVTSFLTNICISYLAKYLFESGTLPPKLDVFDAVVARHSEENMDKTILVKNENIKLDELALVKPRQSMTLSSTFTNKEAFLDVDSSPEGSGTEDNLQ

[3] = biological target: T3, Lysosomal acid glucosylceramidase (Homo sapiens, UniProt P04062); experiment: Dose response cell-based high throughput screening assay to identify enhancers of beta-glucosidase activity. [Related pubchem assays: 784 ]; assay type: functional
T3 sequence (P04062 whole entry): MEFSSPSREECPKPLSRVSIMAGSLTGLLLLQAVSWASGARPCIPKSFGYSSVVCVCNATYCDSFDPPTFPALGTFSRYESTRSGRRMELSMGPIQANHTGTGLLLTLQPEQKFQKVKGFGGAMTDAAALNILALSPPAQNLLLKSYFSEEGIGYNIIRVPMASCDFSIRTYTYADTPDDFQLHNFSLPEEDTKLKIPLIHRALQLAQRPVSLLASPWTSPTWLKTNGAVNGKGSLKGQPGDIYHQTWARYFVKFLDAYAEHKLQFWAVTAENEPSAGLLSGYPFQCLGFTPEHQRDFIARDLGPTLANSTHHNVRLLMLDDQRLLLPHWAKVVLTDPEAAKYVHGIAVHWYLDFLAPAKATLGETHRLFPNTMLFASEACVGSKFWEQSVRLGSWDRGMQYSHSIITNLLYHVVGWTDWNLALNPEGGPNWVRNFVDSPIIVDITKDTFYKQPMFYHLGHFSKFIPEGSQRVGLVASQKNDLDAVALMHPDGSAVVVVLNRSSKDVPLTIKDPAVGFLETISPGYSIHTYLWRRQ

[4] = tested on: Streptococcus sp. 'group A'; experiment: growth inhibition of control SK(-) GAS strain, dose response, counter-screen for streptokinase expression inhibitor project, luminescence, kanamycin, BacTiterGlo, confirmation (AID 1900); assay type: functional, organism-based
[5] = tested on: Streptococcus; experiment: Group A Streptococcus viability loss, dose response, counter-screen for streptokinase expression inhibitor project, luminescence, BacTiterGlo (AID 1915); assay type: functional, organism-based;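 also: potency for reduction of bacterial viability or growth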
[6] = tested on: Vero; experiment: cells; assay type: functional, cell-based; conditions: Chlorocebus sabaeus
[7] = tested on: Vero; experiment: cells; assay type: functional; conditions: Chlorocebus sabaeus
[8] = biological target: T4, Protein RecA (Mycobacterium tuberculosis, UniProt P9WHJ3); experiment: Fluorescence Cell-Free Homogeneous Dose Retest to Identify Inhibitors of RecA-Intein Splicing Activity. [Related pubchem assays (depositor defined):AID2097, AID2223, AID489010, AID492950]; assay type: functional
T4 sequence (P9WHJ3 whole entry): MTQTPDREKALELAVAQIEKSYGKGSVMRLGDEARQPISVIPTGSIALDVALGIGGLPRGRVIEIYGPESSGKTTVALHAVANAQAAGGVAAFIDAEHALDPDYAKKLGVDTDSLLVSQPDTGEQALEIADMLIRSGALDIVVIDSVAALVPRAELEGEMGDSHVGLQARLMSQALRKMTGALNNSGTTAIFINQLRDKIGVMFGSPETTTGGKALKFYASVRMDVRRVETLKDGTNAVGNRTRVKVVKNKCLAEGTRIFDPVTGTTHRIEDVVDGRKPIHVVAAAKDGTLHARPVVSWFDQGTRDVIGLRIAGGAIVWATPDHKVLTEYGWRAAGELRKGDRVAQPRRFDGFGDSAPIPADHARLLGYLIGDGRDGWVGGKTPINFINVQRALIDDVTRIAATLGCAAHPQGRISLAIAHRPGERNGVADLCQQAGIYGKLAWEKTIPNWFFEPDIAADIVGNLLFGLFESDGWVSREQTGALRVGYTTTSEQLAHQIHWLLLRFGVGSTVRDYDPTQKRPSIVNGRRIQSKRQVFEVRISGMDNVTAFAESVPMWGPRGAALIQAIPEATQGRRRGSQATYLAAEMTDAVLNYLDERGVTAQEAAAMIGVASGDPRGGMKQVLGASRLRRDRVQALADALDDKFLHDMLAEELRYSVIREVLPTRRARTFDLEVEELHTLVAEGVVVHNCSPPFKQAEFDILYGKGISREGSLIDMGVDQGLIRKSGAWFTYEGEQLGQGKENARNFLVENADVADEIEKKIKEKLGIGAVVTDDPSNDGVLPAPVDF

[9] = biological target: T5, Replicative DNA helicase DnaB (Mycobacterium tuberculosis, UniProt P9WMR3); experiment: DnaB intein splicing inhibitors, dose response, biochemical, cell-free fluorescence (AID 449749); assay type: functional
T5 sequence (P9WMR3 whole entry): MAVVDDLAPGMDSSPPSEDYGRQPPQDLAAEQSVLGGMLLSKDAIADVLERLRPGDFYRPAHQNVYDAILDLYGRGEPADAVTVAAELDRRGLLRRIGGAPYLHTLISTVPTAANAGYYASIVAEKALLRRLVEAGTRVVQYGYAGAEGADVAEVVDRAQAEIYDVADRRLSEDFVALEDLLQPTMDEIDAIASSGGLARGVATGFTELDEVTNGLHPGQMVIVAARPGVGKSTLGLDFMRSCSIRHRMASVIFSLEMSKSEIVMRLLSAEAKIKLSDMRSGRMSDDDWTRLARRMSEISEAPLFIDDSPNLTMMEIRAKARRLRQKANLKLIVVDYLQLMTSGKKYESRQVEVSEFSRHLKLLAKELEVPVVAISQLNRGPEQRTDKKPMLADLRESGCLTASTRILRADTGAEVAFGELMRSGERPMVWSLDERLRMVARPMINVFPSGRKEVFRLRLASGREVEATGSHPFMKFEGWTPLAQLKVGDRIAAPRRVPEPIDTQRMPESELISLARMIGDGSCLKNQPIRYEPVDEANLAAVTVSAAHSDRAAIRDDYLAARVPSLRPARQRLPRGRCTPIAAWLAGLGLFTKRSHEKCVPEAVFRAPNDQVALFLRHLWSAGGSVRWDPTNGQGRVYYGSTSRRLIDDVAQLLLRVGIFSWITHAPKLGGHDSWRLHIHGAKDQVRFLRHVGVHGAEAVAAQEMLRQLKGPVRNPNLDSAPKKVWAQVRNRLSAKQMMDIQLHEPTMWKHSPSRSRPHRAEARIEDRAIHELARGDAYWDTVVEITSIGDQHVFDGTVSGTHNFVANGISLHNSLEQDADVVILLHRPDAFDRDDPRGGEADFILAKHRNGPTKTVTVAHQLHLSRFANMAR

[10] = biological target: T6, Microphthalmia-associated transcription factor (Homo sapiens, UniProt O75030); experiment: TRPM1 promoter luciferase signal decrease, dose response, MITF inhibitor project, cell-based, SK-MEL-5, cherry-picked, set 3 (AID 493073); assay type: functional
T6 sequence (O75030 whole entry): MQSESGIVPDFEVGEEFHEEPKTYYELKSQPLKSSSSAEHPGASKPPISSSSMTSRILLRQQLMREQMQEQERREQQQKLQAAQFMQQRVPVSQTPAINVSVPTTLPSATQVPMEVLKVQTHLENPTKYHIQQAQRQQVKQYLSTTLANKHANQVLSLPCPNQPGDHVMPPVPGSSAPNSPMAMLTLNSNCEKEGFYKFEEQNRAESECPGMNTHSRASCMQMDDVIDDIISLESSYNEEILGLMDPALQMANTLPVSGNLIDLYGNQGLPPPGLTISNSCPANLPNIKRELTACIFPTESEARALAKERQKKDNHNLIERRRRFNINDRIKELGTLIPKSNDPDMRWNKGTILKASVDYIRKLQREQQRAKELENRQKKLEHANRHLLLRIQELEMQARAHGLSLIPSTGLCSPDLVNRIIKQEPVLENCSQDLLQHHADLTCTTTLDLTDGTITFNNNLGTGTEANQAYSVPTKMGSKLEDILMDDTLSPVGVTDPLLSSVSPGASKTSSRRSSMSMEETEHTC

CCOC(=O)C1(c2ccccc2)CCN(CCC(=O)Nc2ccccc2OC)CC1
EC50 [1]: 1.88 µM (active)

N=C(N)Nc1nc(C2COc3ccccc3O2)cs1 (configuration not stated)
IC50 [2]: 12.6 µM (active)

CCN1CCN(c2nc(-c3cccnc3)nc3ccccc23)CC1
EC50 [3]: > 50 µM (not active)

Cc1onc(-c2ccccc2)c1C(=O)NNC(=S)NC(=O)c1ccc(Cl)cc1Cl
EC50 [4]: 0.441 µM (active) | EC50 [5]: 1.8 µM (active) | EC50 [1]: 1.88 µM (active) | IC50 [6]: 22.7 µM (active) | CC50 [7]: > 25 µM (active)

Cc1ccc2c(c1)[C@H]1OCC[C@H]1[C@@H](c1ccncc1)N2
EC50 [3]: > 10 µM (not active)

CCN(Cc1ccc(OC)c(F)c1)C(=O)CCl
EC50 [8]: 5.37 µM (active) | AC50 [9]: 162 µM (active) | AC50 [10]: 3.36 µM (active)

CCOC(=O)c1cc(NC(=O)c2ccoc2C)cc(C(=O)OCC)c1
IC50 [2]: 14.5 µM (active)

CN1CCN(C(=O)CCCN2C(=O)/C(=C/c3ccccc3)SC2=S)CC1
IC50 [2]: 13.5 µM (active)

Cc1oc(-c2ccccc2)cc1C(=O)Nc1cccc(/C=C\C(=O)O)c1
IC50 [2]: 11.2 µM (active)

CCn1c(CCNC(=O)c2ccc(Cl)cc2)nnc1SCC(=O)NC1CCCC1
EC50 [3]: > 50 µM (not active)

COc1ccc2c(c1O)[C@]13CCN(C)[C@H](C2)[C@@H]1CCC(=O)C3
EC50 [1]: 0.0427 µM (active)
